{
  "source": "patent US20100113464A1",
  "about": "“NOVEL PYRIDAZINE DERIVATIVES” (SYNGENTA CROP PROTECTION, INC., priority 2006, published 2010)",
  "key": {"[1]": {"tested_on": "Magnaporthe arisea (Pyricularia oryzae)", "test": "whole plant or invertebrate", "format": "in vivo", "details": "144 h, read-out: inhibit fungal infestation"}, "Septoria tritici": {"tested_on": "Septoria tritici", "test": "Septoria tritici/Wheat/Preventive (action against Septoria leaf spot on wheat)", "format": "in vivo", "details": "Zymoseptoria tritici, preventive spray, wheat plants cv. Riband, assessed 16-18 days after inoculation, untreated controls infected over 80%, read-out: inhibits fungal infestation", "method": "Septoria tritici/Wheat/Preventive (Action Against Septoria Leaf Spot on Wheat) 2 weeks old wheat plants cv. Riband are treated with the formulated test compound in a spray chamber. One day after application wheat plants are inoculated by spraying a spore suspension (10^6 conidia/ml) on the test plants. After an incubation period of 1 day at 22° C./21° C. and 95% r.h. plants are kept at 22° C./21° C. and 70% r.h. in a greenhouse. The disease incidence is assessed 16-18 days after inoculation."}, "Botrytis cinerea": {"tested_on": "Botrytis cinerea", "test": "Botrytis cinerea/Tomato/Preventive (action against Botrytis on tomato)", "format": "in vivo", "details": "72 h, preventive spray, tomato plants cv. Roter Gnom, assessed after 3 days incubation, untreated controls infected over 80%, read-out: inhibit fungal infestation", "method": "(§1) Botrytis cinerea/Tomato/Preventive (Action Against Botrytis on Tomato) 4 weeks old tomato plants cv. Roter Gnom are treated with the formulated test compound in a spray chamber. Two days after application tomato plants are inoculated by spraying a spore suspension on the test plants. After an incubation period of 3 days at 20° C. and 95% r. h. in a greenhouse the disease incidence is assessed."}, "Uncinula necator": {"tested_on": "Uncinula necator", "test": "Uncinula necator/Grape/Preventive (action against powdery mildew on grape)", "format": "in vivo", "details": "Erysiphe necator, 168 h, preventive spray, grape seedlings cv. Gutedel, assessed after 7 days incubation, untreated controls infected over 80%, read-out: inhibit fungal infestation", "method": "Uncinula necator/Grape/Preventive (Action Against Powdery Mildew on Grape) 5 weeks old grape seedlings cv. Gutedel are treated with the formulated test compound in a spray chamber. One day after application grape plants are inoculated by shaking plants infected with grape powdery mildew above the test plants. After an incubation period of 7 days at 24° C./22° C. and 70% r.h. under a light regime of 14/10 h (light/dark) the disease incidence is assessed."}, "Puccinia recondite": {"tested_on": "Puccinia recondite", "test": "Puccinia recondite/Wheat/Preventive (action against brown rust on wheat)", "format": "in vivo", "details": "264 h, preventive spray, wheat plants cv. Arina, assessed 11 days after inoculation, untreated controls infected over 80%, read-out: inhibits fungal infestation", "method": "Puccinia recondite/Wheat/Preventive (Action Against Brown Rust on Wheat) 1 week old wheat plants cv. Arina are treated with the formulated test compound in a spray chamber. One day after application wheat plants are inoculated by spraying a spore suspension ([…] uredospores/ml) on the test plants. After an incubation period of 1 day at 20° C. and 95% r h. plants are kept for 10 days 20° C./18° C. (day/night) and 60% r.h. in a greenhouse. The disease incidence is assessed 11 days after inoculation."}, "Alternaria solani": {"tested_on": "Alternaria solani", "test": "Alternaria solani/Tomato/Preventive (action against Alternaria on tomato)", "format": "in vivo", "details": "96 h, preventive spray, tomato plants cv. Roter Gnom, assessed after 4 days incubation, untreated controls infected over 80%, read-out: inhibit fungal infestation", "method": "as §1, with “Alternaria solani/Tomato/Preventive” for “Botrytis cinerea/Tomato/Preventive”, “Alternaria” for “Botrytis”, “4” for “3”, “22° C./18°” for “20°”, “r.h.” for “r. h.”"}, "[2]": {"tested_on": "Pyrenophora teres (Helminthosporium teres)", "test": "Pyrenophora teres (Helminthosporium teres)/Barley/Preventive (action against net blotch on barley)", "format": "in vivo", "details": "96 h, preventive spray, barley plants cv. Regina, assessed after 4 days incubation, untreated controls infected over 80%, read-out: inhibit fungal infestation", "method": "Pyrenophora teres (Helminthosporium teres)/Barley/Preventive (Action Against Net Blotch on Barley) 1-week-old barley plants cv. Regina are treated with the formulated test compound in a spray chamber. Two days after application barley plants are inoculated by spraying a spore suspension (2.6×10^4 conidia/ml) on the test plants. After an incubation period of 4 days at 20° C. and 95% r.h. the disease incidence is assessed."}},
  "data": [
    {"smiles": "Cc1nnc(C)c(-c2c(F)cc(F)cc2F)c1-c1cccs1", "note": "[I.h.200, 3,6-dimethyl-4-thiophen-2-yl-5-(2,4,6-trifluorophenyl)-pyridazine]", "values": [
      {"measurement": "inhibition at 200 ppm", "setting": "[1]", "result": "≥ 80", "unit": "%"},
      {"measurement": "inhibition at 200 ppm", "setting": "Septoria tritici", "result": "≥ 80", "unit": "%"},
      {"measurement": "inhibition at 200 ppm", "setting": "Botrytis cinerea", "result": "≥ 80", "unit": "%"},
      {"measurement": "inhibition at 200 ppm", "setting": "Uncinula necator", "result": "≥ 80", "unit": "%"},
      {"measurement": "inhibition at 200 ppm", "setting": "Puccinia recondite", "result": "≥ 80", "unit": "%"},
      {"measurement": "inhibition at 200 ppm", "setting": "Alternaria solani", "result": "≥ 80", "unit": "%"},
      {"measurement": "inhibition at 200 ppm", "setting": "[2]", "result": "≥ 80", "unit": "%"},
      {"measurement": "melting point", "result": "100 to 102", "unit": "°C"}
    ]},
    {"smiles": "Cc1nnc(Cl)c(-c2c(F)cc(F)cc2F)c1-c1cccs1", "note": "[I.h.198, 3-chloro-6-methyl-5-thiophen-2-yl-4-(2,4,6-trifluorophenyl)-pyridazine]", "values": [
      {"measurement": "inhibition at 200 ppm", "setting": "[1]", "result": "≥ 80", "unit": "%"},
      {"measurement": "inhibition at 200 ppm", "setting": "Septoria tritici", "result": "≥ 80", "unit": "%"},
      {"measurement": "inhibition at 200 ppm", "setting": "Botrytis cinerea", "result": "≥ 80", "unit": "%"},
      {"measurement": "inhibition at 200 ppm", "setting": "Uncinula necator", "result": "≥ 80", "unit": "%"},
      {"measurement": "inhibition at 200 ppm", "setting": "Puccinia recondite", "result": "≥ 80", "unit": "%"},
      {"measurement": "inhibition at 200 ppm", "setting": "Alternaria solani", "result": "≥ 80", "unit": "%"},
      {"measurement": "inhibition at 200 ppm", "setting": "[2]", "result": "≥ 80", "unit": "%"},
      {"measurement": "melting point", "result": "90 to 92", "unit": "°C"}
    ]},
    {"smiles": "COc1nnc(C)c(-c2cccs2)c1-c1c(F)cc(F)cc1F", "note": "[I.h.199, 3-methoxy-6-methyl-5-thiophen-2-yl-4-(2,4,6-trifluorophenyl)-pyridazine]", "values": [
      {"measurement": "inhibition at 200 ppm", "setting": "[1]", "result": "≥ 80", "unit": "%"},
      {"measurement": "inhibition at 200 ppm", "setting": "Septoria tritici", "result": "≥ 80", "unit": "%"},
      {"measurement": "inhibition at 200 ppm", "setting": "Botrytis cinerea", "result": "≥ 80", "unit": "%"},
      {"measurement": "inhibition at 200 ppm", "setting": "Uncinula necator", "result": "≥ 80", "unit": "%"},
      {"measurement": "inhibition at 200 ppm", "setting": "Puccinia recondite", "result": "≥ 80", "unit": "%"},
      {"measurement": "inhibition at 200 ppm", "setting": "Alternaria solani", "result": "≥ 80", "unit": "%"},
      {"measurement": "inhibition at 200 ppm", "setting": "[2]", "result": "≥ 80", "unit": "%"},
      {"measurement": "melting point", "result": "124 to 125", "unit": "°C"}
    ]},
    {"smiles": "COc1cc(F)c(-c2c(OC)nnc(C)c2-c2cccs2)c(F)c1", "note": "[I.h.254, 4-(2,6-difluoro-4-methoxyphenyl)-3-methoxy-6-methyl-5-thiophen-2-yl-pyridazine]", "values": [
      {"measurement": "melting point", "result": "130 to 133", "unit": "°C"}
    ]},
    {"smiles": "Cc1nnc(F)c(-c2c(F)cc(F)cc2F)c1-c1cccs1", "note": "[I.h.197, 3-fluoro-6-methyl-5-thiophen-2-yl-4-(2,4,6-trifluorophenyl)-pyridazine]", "values": [
      {"measurement": "inhibition at 200 ppm", "setting": "[1]", "result": "≥ 80", "unit": "%"},
      {"measurement": "inhibition at 200 ppm", "setting": "Septoria tritici", "result": "≥ 80", "unit": "%"},
      {"measurement": "inhibition at 200 ppm", "setting": "Botrytis cinerea", "result": "≥ 80", "unit": "%"},
      {"measurement": "inhibition at 200 ppm", "setting": "Puccinia recondite", "result": "≥ 80", "unit": "%"},
      {"measurement": "inhibition at 200 ppm", "setting": "Alternaria solani", "result": "≥ 80", "unit": "%"},
      {"measurement": "inhibition at 200 ppm", "setting": "[2]", "result": "≥ 80", "unit": "%"},
      {"measurement": "melting point", "result": "71 to 74", "unit": "°C"}
    ]},
    {"smiles": "Cc1n[nH]c(=O)c(-c2c(F)cc(F)cc2F)c1-c1cccs1", "note": "[I.h.196, 6-methyl-5-thiophen-2-yl-4-(2,4,6-trifluorophenyl)-2H-pyridazin-3-one]", "values": [
      {"measurement": "melting point", "result": "249 to 251", "unit": "°C"}
    ]}
  ]
}
